The results in this text go back to patent EP3797781A1, “USE OF EC-7072 AND SYNERGIC COMPOSITIONS THEREOF IN TREATMENT OF CHRONIC LYMPHOCYTIC LEUKEMIA” (priority 2019, dated 2021).

The assay concerns histone H2AX. As to the kind of experiment: Phosphoflow of phosphorylated H2AX in isolated leukemia cells. It counts as cell-based, human. As to conditions: 200 nM, 12 hours; isolated leukemia cells (n = 4). The method, then: Protein phosphorylation levels were evaluated by phosphoflow. Briefly, isolated leukemia cells from patients with CLL were treated with 200 nM EC-7072 or DMSO for 8 or 12 hours. In some experiments, BCR signaling was activated with goat F(ab')2 anti-IgM antibody (10 µg/mL; SouthernBiotech) for 45 minutes. Right afterwards, cells were fixed with 1.8% paraformaldehyde for 10 minutes at RT and permeabilized with 90% ice-cold methanol for 25 minutes at 4 °C. Finally, cells were incubated with specific phospho-antibodies (p-SYK, p-BTK, p-ERK1/2 and p-H2AX from Biolegend, and p-PLCγ2, p-AKT, p-p65 NF-κB and p-STAT3 from BD Bioscience) for 30 minutes at RT and mean fluorescence intensity (MFI) was analyzed by flow cytometry.
The induction of caspase-dependent apoptosis on primary CLL cells by EC-7072 was assessed by: • (i) incubating PBMCs isolated from patients with CLL (n = 6) following treatment with increasing concentrations of EC-7072 (0 - 400 nM) for 24 hours. Apoptosis of leukemia cells was evaluated by cytofluorometric assessment of Annexin V/PI staining to obtain percentages of apoptotic [Annexin V^+ PI^-] and dead [PI^+] cells (Figure 3A); • (ii) incubating PBMCs and T cells isolated from patients with CLL (n = 3) following treatment with EC-7072 (200 nM) for 24 hours. […]

On to `CO[C@@H]([C@@H]1Cc2cc3cc(O[C@H]4C[C@@H](O[C@H]5C[C@@H](O)[C@H](O)[C@@H](C)O5)[C@H](O)[C@@H](C)O4)c(C)c(O)c3c(O)c2C(=O)[C@H]1O[C@H]1C[C@@H](O[C@H]2C[C@@H](O[C@H]3C[C@](C)(O)[C@H](O)[C@@H](C)O3)[C@@H](O)[C@@H](C)O2)[C@H](O)[C@@H](C)O1)[C@@H](O)C(C)=O` [EC-7072, mithramycin SK], for which the “phosphorylation of histone H2AX” value is “heightened phosphorylation”.
